{"source": "paper PMC11015056", "about": "(ACS Infectious Diseases, 2024)", "key": {"[1]": {"target": "T1, ParC^E91G N. gonorrhoeae topoisomerase IV (Neisseria gonorrhoeae, UniProt P48374, E91G)", "T1 sequence (P48374 1-768 E91G)": "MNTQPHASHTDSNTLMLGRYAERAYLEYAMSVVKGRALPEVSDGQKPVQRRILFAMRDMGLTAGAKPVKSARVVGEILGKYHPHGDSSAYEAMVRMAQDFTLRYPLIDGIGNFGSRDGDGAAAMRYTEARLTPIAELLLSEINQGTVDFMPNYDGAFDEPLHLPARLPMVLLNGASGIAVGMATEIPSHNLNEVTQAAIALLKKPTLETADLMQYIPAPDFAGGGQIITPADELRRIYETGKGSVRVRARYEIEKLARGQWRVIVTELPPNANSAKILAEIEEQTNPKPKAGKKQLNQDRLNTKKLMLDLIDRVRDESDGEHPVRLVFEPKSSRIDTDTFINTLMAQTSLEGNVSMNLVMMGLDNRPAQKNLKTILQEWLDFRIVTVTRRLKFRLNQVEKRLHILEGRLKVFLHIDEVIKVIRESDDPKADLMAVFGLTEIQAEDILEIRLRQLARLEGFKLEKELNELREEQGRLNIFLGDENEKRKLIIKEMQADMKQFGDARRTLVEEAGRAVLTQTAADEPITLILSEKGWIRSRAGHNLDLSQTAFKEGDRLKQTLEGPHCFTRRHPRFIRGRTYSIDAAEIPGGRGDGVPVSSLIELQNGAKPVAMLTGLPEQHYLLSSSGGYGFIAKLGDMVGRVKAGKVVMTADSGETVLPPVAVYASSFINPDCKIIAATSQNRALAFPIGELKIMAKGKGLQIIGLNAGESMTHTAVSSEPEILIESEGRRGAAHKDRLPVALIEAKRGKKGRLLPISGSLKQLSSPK", "test": "Topoisomerase IV-catalyzed DNA decatenation, ParC E91G", "format": "biochemical"}, "[2]": {"target": "T2, ParC^S87N/E91G N. gonorrhoeae topoisomerase IV (Neisseria gonorrhoeae, UniProt P48374, E91G/S87N)", "T2 sequence (P48374 1-768 S87N/E91G)": "T1 sequence (P48374 1-768 E91G)", "test": "Topoisomerase IV-catalyzed DNA decatenation, ParC S87N/E91G", "format": "biochemical"}, "[3]": {"target": "T3, ParC^S87N N. gonorrhoeae topoisomerase IV (Neisseria gonorrhoeae, UniProt P48374, S87N)", "T3 sequence (P48374 1-768 S87N)": "T1 sequence (P48374 1-768 E91G)", "test": "Topoisomerase IV-catalyzed DNA decatenation, ParC S87N", "format": "biochemical"}, "[4]": {"target": "WT N. gonorrhoeae topoisomerase IV (Neisseria gonorrhoeae, UniProt P48374)", "test": "Topoisomerase IV-catalyzed DNA decatenation, WT", "format": "biochemical", "procedure": "DNA decatenation assays were based on previously published protocols by Anderson et al.[79] and Aldred et al.[30] Assays contained 10 nM WT, 20 nM ParC^S87N, 35 nM ParC^E91G, or 35 nM ParC^S87N/E91GN. gonorrhoeae topoisomerase IV, 5 nM kDNA, and 1 mM ATP in 20 μL of 40 mM HEPES-KOH (pH 7.6), 25 mM NaCl, 100 mM KGlu, and 10 mM Mg(OAc)2. Assay mixtures were incubated at 37 °C for 10 min with WT, 15 min with ParC^S87N, and 30 min with ParC^E91G and ParC^S87N/E91GN. gonorrhoeae topoisomerase IV, which represents the minimum time required to completely decatenate the kDNA in the absence of a drug. Reactions were stopped, subjected to electrophoresis, and visualized as described for gyrase-catalyzed DNA supercoiling."}, "WT N. gonorrhoeae gyrase": {"target": "WT N. gonorrhoeae gyrase (Neisseria gonorrhoeae, UniProt P22118+P48371)", "sequence (P48371 whole entry)": "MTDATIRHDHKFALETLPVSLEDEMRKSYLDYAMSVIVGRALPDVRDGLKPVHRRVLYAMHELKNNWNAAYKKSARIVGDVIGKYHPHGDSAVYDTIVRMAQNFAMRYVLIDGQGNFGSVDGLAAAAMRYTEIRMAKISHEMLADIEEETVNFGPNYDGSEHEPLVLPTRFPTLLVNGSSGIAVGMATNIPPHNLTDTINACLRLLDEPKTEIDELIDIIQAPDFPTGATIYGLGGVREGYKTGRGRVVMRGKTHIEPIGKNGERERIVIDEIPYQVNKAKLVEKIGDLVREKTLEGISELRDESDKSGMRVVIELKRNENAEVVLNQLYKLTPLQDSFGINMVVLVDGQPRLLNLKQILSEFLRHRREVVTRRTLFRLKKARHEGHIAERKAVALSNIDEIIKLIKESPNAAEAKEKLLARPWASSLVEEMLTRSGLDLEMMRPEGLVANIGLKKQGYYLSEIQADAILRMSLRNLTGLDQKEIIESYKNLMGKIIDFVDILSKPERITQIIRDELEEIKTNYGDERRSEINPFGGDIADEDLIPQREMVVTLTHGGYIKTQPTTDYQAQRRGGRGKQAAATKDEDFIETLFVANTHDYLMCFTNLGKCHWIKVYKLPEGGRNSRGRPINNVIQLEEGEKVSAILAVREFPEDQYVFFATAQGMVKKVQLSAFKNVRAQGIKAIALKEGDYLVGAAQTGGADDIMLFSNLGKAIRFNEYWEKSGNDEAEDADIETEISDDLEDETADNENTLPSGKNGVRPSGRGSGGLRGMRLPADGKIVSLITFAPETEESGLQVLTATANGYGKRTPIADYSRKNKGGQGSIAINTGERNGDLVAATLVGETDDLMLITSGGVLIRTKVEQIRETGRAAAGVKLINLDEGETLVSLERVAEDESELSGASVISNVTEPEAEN", "sequence (P22118 whole entry)": "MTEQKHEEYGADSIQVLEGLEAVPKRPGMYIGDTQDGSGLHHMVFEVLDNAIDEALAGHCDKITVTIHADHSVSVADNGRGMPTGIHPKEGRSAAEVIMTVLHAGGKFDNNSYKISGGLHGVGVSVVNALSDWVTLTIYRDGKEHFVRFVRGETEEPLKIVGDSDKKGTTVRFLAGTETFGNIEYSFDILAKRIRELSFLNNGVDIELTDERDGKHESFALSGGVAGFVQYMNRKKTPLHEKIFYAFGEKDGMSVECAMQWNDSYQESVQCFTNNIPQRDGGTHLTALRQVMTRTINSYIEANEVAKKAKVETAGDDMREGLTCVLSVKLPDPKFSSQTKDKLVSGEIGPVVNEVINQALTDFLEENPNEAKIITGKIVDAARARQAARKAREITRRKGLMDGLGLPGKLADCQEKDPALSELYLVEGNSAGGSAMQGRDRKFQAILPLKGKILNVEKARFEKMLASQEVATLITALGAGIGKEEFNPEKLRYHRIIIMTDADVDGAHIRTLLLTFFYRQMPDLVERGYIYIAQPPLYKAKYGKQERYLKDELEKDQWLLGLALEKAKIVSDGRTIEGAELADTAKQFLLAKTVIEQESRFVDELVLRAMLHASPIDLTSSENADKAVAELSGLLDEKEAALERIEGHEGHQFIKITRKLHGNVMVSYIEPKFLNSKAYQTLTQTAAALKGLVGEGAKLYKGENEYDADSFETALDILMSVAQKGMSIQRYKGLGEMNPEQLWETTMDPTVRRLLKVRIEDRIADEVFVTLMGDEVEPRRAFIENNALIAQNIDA", "test": "Gyrase-mediated DNA cleavage, WT gyrase", "details": "GyrA WT; induced by 8-methyl-2,4-quinazolinedione"}, "[5]": {"target": "T4, GyrA^S91F/D95G N. gonorrhoeae gyrase (Neisseria gonorrhoeae, UniProt P22118+P48371, D95G/S91F)", "T4 construct": "His-tag; purchased GenScript", "T4 sequence (P48371 whole entry, looked up, stated change not applied)": "as the sequence (P48371 whole entry) above", "T4 sequence (P22118 whole entry, stated change not applied)": "as the sequence (P22118 whole entry) above", "test": "Gyrase-catalyzed DNA supercoiling, GyrA S91F/D95G gyrase", "format": "biochemical", "details": "± standard error of the mean, read-out: IC50, inhibition of DNA supercoiling"}}, "data": [{"smiles": "O=C(O)c1cn(C2CC2)c2cc(N3CCNCC3)c(F)cc2c1=O", "note": "[Ciprofloxacin]", "values": [{"measurement": "IC50", "setting": "[1]", "value": "301 ± 23.8", "unit": "µM"}, {"measurement": "IC50", "setting": "[2]", "value": "> 500", "unit": "µM"}, {"measurement": "IC50", "setting": "[3]", "value": 16.4, "unit": "µM"}, {"measurement": "IC50", "setting": "[4]", "value": 13.7, "unit": "µM"}]}, {"smiles": "Cc1c(N2CC[C@@H](CN)C2)c(F)cc2c(=O)n(N)c(=O)n(C3CC3)c12", "note": "[8-Me-2,4-QD, 3-Amino-7-[(3S)-3-(aminomethyl)-1-pyrrolidinyl]-1-cyclopropyl-6-fluoro-8-methyl-2,4(1H,3H)-quinazolinedione]", "values": [{"measurement": "Max % DSB", "setting": "WT N. gonorrhoeae gyrase", "value": 28.9, "unit": "%"}, {"measurement": "IC50", "setting": "[5]", "value": 19.7, "unit": "µM"}]}]}
